From patent US7141601B2, “Dendrite elongation inhibitor for melanocyte and skin preparation for external use containing the same” (Pola Chemiocal Industries Inc., priority 2002, dated 2006)

System: Normal human melanocyte
Experiment: inhibitory action on the elongation of dendrites using human melanocytes
Type: cell-based
Excerpt: According to a method shown below, inhibitory action on the elongation of dendrites was examined using human melanocytes. (Reagent, etc.) Cells, basal media, and amplification additives were purchased from KURABO INDUSTRIES LTD. • (Cell) Normal human melanocyte • (Medium) Basal medium (Medium 154S) supplemented with reagents described below • (Reagent) Amplification additive: bovine pituitary extract (BPE) (final concentration of 0.4% v/v in the medium), fetal bovine serum • (FBS) (final concentration of 0.5% v/v in the medium), human recombinant basic fibroblast growth factor (rFGF-B) (final concentration of 3 ng/ml in the medium), hydrocortisone (final concentration of 0.18 μg/ml in the medium), insulin (final concentration 5 μg/ml in the medium), transferrin (final concentration of 5 μg/ml in the medium), phorbol 12-myristate 13-acetate (PMA) (final concentration of 10 ng/ml in the medium), heparin (final concentration of 3 μg/ml in the medium), and PSA solution (mixture solution of penicillin concentration of 50,000 Unit/ml, streptomycin concentration of 50 μg/ml, and amphotericin B concentration of 12.5 μg/ml; 1-ml addition with respect to 500 ml of the medium) (Method)
Compound 1 (methylophiopogonanone B) obtained in the above-described example of production was diluted in a basal medium so that the concentration was brought up to 100 μg/ml, to make a sample solution. […]

Structure (SMILES): COc1ccc(CC2COc3c(C)c(O)c(C)c(O)c3C2=O)cc1 (centres unmarked) [Compound 1, 2,3-dihydro-3-[(4-methoxyphenyl)methyl]-5,7-dihydroxy-6,8-dimethyl-4H-1-benzopyran-4-on]
- Length of dendrite (50 μl of 100 μg/ml sample solution added to 200 μl medium, observed 24 hours after addition, growth factors in medium): 22 ± 6 μm
- inhibition against the elongation of dendrites (in words) (vs control with basal medium only, 24 hours after addition): elongation is inhibited
